From patent publication US6770740B1, “Crosslinked DNA condesate compositions and gene delivery methods” (The Regents of the University of Michigan, priority 1999, dated 2004)
Where a SMILES comes first, the peptide text is derived from it.

Key:
plasmid DNA [1] = assay: Kinetics of peptide cross-linking on DNA (SYBR-Gold fluorescence), Example 5; assay type: physicochemical; conditions: charge ratio 2:1
Procedure: The kinetics of cross-linking within peptide DNA condensates was studied indirectly by monitoring the displacement of SYBR-Gold™ intercalator dye from DNA condensates as a function of time. Peptide DNA condensates were prepared (200 μl of 50 μg/ml) at a peptide stoichiometry of 0.4 nmol per μg of DNA. Immediately after mixing peptide and DNA, a 10 μl aliquot was combined with 990 μl of SYBR-Gold™ (1X) and the fluorescence intensity (Ex 495 nm, Em 537 nm) was continuously monitored for 30 min.
The rate of cross-linking was also examined as a function of peptide concentration. The stoichiometry of peptide IV was increased from 0.4 to 1.2 nmol per μg of DNA and the rate of declining fluorescence intensity was determined as described above.

[2] = QELS particle size and zeta potential of cross-linking peptide DNA condensates, Example 5; assay type: physicochemical
Procedure: The particle size of each peptide DNA condensate was determined by quasielastic light scattering (QELS) at a scatter angle of both 15° and 90° on a Brookhaven ZetaPlus™ particle sizer. Condensates were prepared at a DNA concentration of 50 μg/ml in 400 μl HBM at a stoichiometry of 0.4 nmol of peptide per μg of DNA corresponding to a charge ratio of approximately 2:1 for each. The mean diameter and population distribution were computed from the diffusion coefficient using a unimodal cummulant analysis supplied by the manufacturer.
The particle size and zeta peptide IV DNA condensates were determined by titrating 7.5 to 37.5 nmol of peptide with 75 μg of DNA in 1.5 ml of HBM to produce 50 μg/ml DNA condensates with charge ratio of 0.5-2.5. The zeta potential was averaged from 10 determines.

[3] = Kinetics of peptide oxidation (disulfide bond formation) in solution by ES-MS; assay type: physicochemical; conditions: pH 7.5, free in solution
Procedure: The kinetics of disulfide bond formation in solution was monitored by […]. […] Single ion monitoring (SIM) scans were taken at 20 sec intervals over 2 h while monitoring the disappearance of the M+2H^+ parent ion (1258 amu) and formation of the M+2H^+ ion of the oxidized species (1256 amu).

[4] = Shear stress stability of cross-linked DNA condensates (salt sonication), Example 5; assay type: physicochemical
Procedure: Peptide DNA condensates (200 μl of 50 μg/ml) were formed and incubated at RT for 30 min and then combined with 0 to 200 μl of 5 M sodium chloride and normalized to 400 μl with HBM to achieve a final sodium chloride concentration of 0, 0.2, 0.4, 0.8, 1.0, 1.5, 2.0, and 2.5 M. Each sample was sonicated for 30 sec with a 100 W Microson™ XL-2000 ultrasonic probe homogenizer (Kontes, Vineland N.J.) with a vibrational amplitude of 6 to fragment uncondensed DNA (Adami et al., 1998). DNA condensates were digested with 30 μg of trypsin for 12 h at 37° C. then electrophoresed on an agarose gel and visualized by ethidium bromide staining.

CHO cells = assay: Luciferase gene expression in CHO cells, Example 6; assay type: cell-based; conditions: 80 μM chloroquine
[5] = QELS particle size and zeta potential of peptide DNA condensates, Example 6; assay type: physicochemical; conditions: charge ratio 4:1, 50 μg/ml DNA in HBM; for Particle Size (nm): 90°, average and SD of three, No particles formed; for Zeta Potential (mV): average and SD of ten
Procedure: The particle size and zeta potential of peptide DNA condensates were determined by quasielastic light scattering (QELS) using a Brookhave ZetaPlus™. Particle size analysis was performed in triplicate at a DNA concentration of 50 μg/ml in HBM at a charge ratio of 4:1 and a scattering angle of 90°. Data analysis utilized a multimodal volume distribution option included with the instrument. Zeta potential was also determined using 50 μg/ml peptide DNA condensates prepared at a 4:1 charge ratio in HBM. The reported zeta potential was averaged from ten determinations.

plasmid DNA [6] = assay: Thiazole orange displacement titration of peptide binding to DNA, Example 6; conditions: titration across charge ratios 0.25-8
Procedure: Peptide DNA condensates were prepared by combining 50 μg of DNA in 500 μl of Hepes buffered mannitol (HBM) (5 w/v% mannitol, 5 mM Hepes, pH 7.5) with […] of peptide in 500 μl of HBM while vortexing to form peptide DNA condensates with a calculated primary amine to phosphate charge ratio between 0.25 and 8.0 (NH4^+:PO4). The condensates were allowed to cross-link for 30 min prior to performing physical measurements. The binding of each peptide to DNA was assayed by combining peptide DNA condensates (50 μl) with 950 μl of HBM containing 0.1 μM thiazole orange. The fluorescence of the intercalated dye was measured using an LS50B fluorometer (Perkin Elmer, UK) by exciting at 500 nm while monitoring emission at 530 nm with the slit width set at 15 and 20 nm, respectively. Fluorescence blanks were substracted from all values before data analysis.

[7] = Shear stress stability (salt sonication assay), Example 6; assay type: physicochemical; conditions: 30 sec sonication
Procedure: The relative stability of peptide DNA condensates were examined using a salt sonication assay (Adami and Rice, 1999). Peptide DNA condensates (200 μl of 50 μg/ml) were formed as described above, incubated at RT for 30 min and then combined with 0-200 μl of 5 m […] and normalized to 400 μl with HBM to achieve a final sodium chloride concentration of 0, 0.2, 0.4, 0.8, 1.0, 1.5, 2.0 and 2.5 M. Each sample was sonicated for 30 sec with a 100 W Microson™ XL-2000 ultrasonic probe homogenizer (Kontes, Vineland N.J.) with a vibrational amplitude of 5 fragment uncondensed DNA. DNA condensates were digested with 30 μg to trypsin for 12 h at 37° C., electrophoresed on a 1% agarose gel electrophoresed in TEA buffer for 2 h, then visualized by ethidium bromide staining and destaining prior to photography on a transilluminator.

COS 7 cells = assay: Luciferase gene expression in COS 7 cells, Example 6; assay type: cell-based; conditions: COS 7, 80 μM chloroquine
plasmid DNA [8] = assay: Kinetics of peptide cross-linking on DNA (SYBR-Gold), Example 6; assay type: physicochemical; conditions: charge ratio 4:1
Procedure: The kinetics of disulfide bond formation of peptides bound to DNA was analyzed indirectly by monitoring the displacement of SYBR-Gold™ from DNA condensates. Peptide DNA condensates were formed by combining 20 μg of DNA in 500 μl of HBM containing 1× SYBR-Gold™ with 500 μl (26-52 nmol) of peptide in HBM containing 1 × SYBR-Gold to achieve a charge ratio of 4:1 (NH4^+:PO4). The fluorescence intensity (Ex 495 nm, Em 600 nm) was continuously monitored for 30 min to determine kinetics of cross-linking.

HepG2 cells = assay: Luciferase gene expression in HepG2 cells, Example 6; assay type: cell-based; conditions: HepG2, absence of chloroquine
Procedure: HepG2 cells (1.5×10^5) were plated on 6×35 mm wells and grown to 50% confluencey in MEM supplemented with 10% FBS, penicillin and streptomycin (100 U/ml), sodium pyruvate (100 mM), and L-glutamine (2 mM). Transfections were performed in MEM (2 ml per 35 mm well) with 2% FBS with and without 80 μM chloroquine. Peptide DNA condensates (10 μg of DNA of 0.2 ml HBM) were added dropwise to triplicate wells. After a 5 h incubation at 37° C., the medium was replaced with MEM supplemented with 10% FBS. After 24 h, cells were washed with ice-cold phosphate buffered saline (calcium and magnesium free) and then treated with 0.5 ml of ice-cold lysis buffer (25 mM) Tris chloride pH 7.8, 1 mM EDTA, 8 mM magnesium chloride, 1% Triton X-100, 1 mM DTT) for 10 min. The cell lysates were scraped, transferred to 1.5 ml microcentrifuge tube, and centrifuged for 7 min at 13,000 g at 4° C. to pellet debris.
Lysis buffer (300 μl), sodium-ATP (4 μl of a 180 mM solution, pH 7, 4° C.) and cell lysate (100 μl, 4° C.) were combined in a test tube, briefly mixed and immediately placed in the luminometer. Luciferase relative light units (RLU) were recorded on a Lumat™ LB 9501 (Berthoid Systems, Germany) with 10 sec integration after automatic injection of 100 μl of 0.5 mM D-luciferin (prepared fresh in lysis buffer without DTT). The RLU were converted into fmol using a standard curve generated by adding a known amount of luciferase (0.01 to 100 fmols with specific activity of 2.5 nU/fmol) to 35 mm wells containing 50% confluent cells and lysis buffer. Protein concentrations were measured by Bradford assay using bovine serum albumin as a standard (Bradford, 1976). […]
LipofectAce™ (Gibco BRL, 1:2.5 w/w dimethyl dioctadecylammonium bromide and dioleoyl phosphatidylethanolamine) was used to mediate gene transaction according to the manufacturer's instructions. […] The cells were incubated for a total of 24 h, harvested and analyzed for luciferase as described above.

glutathione reductase = target: T1, glutathione reductase (Homo sapiens, UniProt P00390); conditions: challenged with glutathione reductase; Drummer et al., 1987; cited from earlier work
T1 sequence (P00390 44-522): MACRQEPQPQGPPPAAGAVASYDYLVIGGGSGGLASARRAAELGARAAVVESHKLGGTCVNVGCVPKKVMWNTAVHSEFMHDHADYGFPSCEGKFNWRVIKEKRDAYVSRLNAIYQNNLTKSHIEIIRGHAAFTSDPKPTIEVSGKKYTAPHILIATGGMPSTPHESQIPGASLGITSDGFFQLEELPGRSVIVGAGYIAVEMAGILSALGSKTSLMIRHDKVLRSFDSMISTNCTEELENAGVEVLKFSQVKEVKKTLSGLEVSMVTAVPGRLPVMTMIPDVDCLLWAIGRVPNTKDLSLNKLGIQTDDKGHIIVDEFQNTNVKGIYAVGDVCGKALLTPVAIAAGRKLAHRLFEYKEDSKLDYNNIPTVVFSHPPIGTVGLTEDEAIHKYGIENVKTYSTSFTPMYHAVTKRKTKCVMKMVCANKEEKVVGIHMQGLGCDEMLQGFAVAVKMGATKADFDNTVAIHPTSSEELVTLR

## NCCCC[C@H](NC(=O)[C@H](CCCCN)NC(=O)[C@H](CCCCN)NC(=O)[C@H](CCCCN)NC(=O)[C@H](CS)NC(=O)[C@H](CCCCN)NC(=O)[C@H](CCCCN)NC(=O)[C@H](CCCCN)NC(=O)[C@H](CS)NC(=O)[C@H](CCCCN)NC(=O)[C@H](CCCCN)NC(=O)[C@H](CCCCN)NC(=O)[C@H](CS)NC(=O)[C@H](CCCCN)NC(=O)[C@H](CCCCN)NC(=O)[C@H](CCCCN)NC(=O)[C@H](CCCCN)NC(=O)[C@H](Cc1c[nH]c2ccccc12)NC(=O)[C@@H](N)CS)C(=O)N[C@@H](CS)C(=O)O [V, Cys-Trp-Lys4-Cys-Lys3-Cys-Lys3-Cys-Lys4-Cys] (H-CWKKKKCKKKCKKKCKKKKC-OH; N-terminus and C-terminus assumed)
Plasmid DNA [1]
  time of inter-peptide cross-linking on DNA: less than 30 min
[2]; HBM after 2 h incubation, 50 μg/ml DNA, 0.4 nmol peptide per μg DNA, scattering angle 15°
  Particle Size Mean Diameter, Oxidized, 15°: 41 nm
[2]; HBM after 2 h incubation, 50 μg/ml DNA, 0.4 nmol peptide per μg DNA, scattering angle 90°
  Particle Size Mean Diameter, Oxidized, 90°: 57 nm
[2]; HBM with added saline (0.15 M) after 15 min
  Particle Size Mean Diameter, Saline: 93 nm
[2]; following addition of TCEP (1 mM)
  Particle Size Mean Diameter, Reduced: 171 nm
[3]; methanol/ammonium acetate solution, read-out: t½ of disappearance of the parent ion (intra-molecular disulfide formation)
  half-life at 100 µM: ~10 min
[3]
  time to complete disappearance of the parent ion: ≤ 25 min
[4]; DNA condensates reduced with TCEP
  sodium chloride concentration of DNA condensate stability after reduction: 0.4 M
[4]; peptide fully oxidized prior to making DNA condensates
  sodium chloride concentration above which DNA was not protected, pre-oxidized peptide: 0.4 M

## Cys-(Lys)4-Cys (CKKKKC) [Peptide 5]
CHO cells
  gene expression relative to peptide 3, 6 and 7: three-orders of magnitude lower
[5]
  Particle Size (nm): 38 ± 10 nm
Plasmid DNA [6]
  charge ratio (NH4+:PO4) needed to condense DNA (thiazole orange fluorescence minimum): 3

## Cys-(Lys)8-Cys (CKKKKKKKKC) [Peptide 7]
[7]
  sodium chloride concentration at which DNA condensates dissociate: 0.8 to 1 M
COS 7 cells
  lower gene expression relative to peptide 3, 5 and 6 DNA condensates: 5 fold
[5]
  Particle Size (nm): 53 ± 16 nm
  Zeta Potential (mV): 26 ± 2 mV
Plasmid DNA [6]
  charge ratio (NH4+:PO4) needed to condense DNA (thiazole orange fluorescence minimum): 2

## Cys-(Lys)4-His-(Lys)3-Cys (CKKKKHKKKC) [Peptide 12]
Plasmid DNA [8]
  time to completion of cross-linking on DNA (SYBR-Gold asymptote): less than 10 min
[5]
  Particle Size (nm): 87 ± 20 nm
  Zeta Potential (mV): 30 ± 2 mV
HepG2 cells
  higher gene expression compared to peptide 7 DNA condensates: 3 fold

## CC(C)(SSC(C)(C)C(N)C(=O)O)C(N)C(=O)O (stereo not shown) [Penicillamine disulfide]
Glutathione reductase
  stability relative to cystine: approximately 26 fold
